Test results as given in PubChem BioAssay (NCI).
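Each compound was tested at five concentrations against cells in 96-well plates for 48 hours. Here, GI50 denotes the concentration required for 50% inhibition of growth. Definition used: TGI = concentration required for complete inhibition of growth.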

Key:
Test in all cases: inhibition of tumour cell growth, NCI panel, 48 h
786-0 renal = system: 786-0 renal
A549 NSCLC = system: A549 NSCLC
CCRF-CEM leukemia = system: CCRF-CEM leukemia
MDA-MB-231 breast = system: MDA-MB-231 breast
NCI-H226 lung = system: NCI-H226 lung
OVCAR-4 ovarian = system: OVCAR-4 ovarian
RPMI-8226 leukemia = system: RPMI-8226 leukemia
SF-295 CNS = system: SF-295 CNS
SK-MEL-28 melanoma = system: SK-MEL-28 melanoma
SNB-75 CNS = system: SNB-75 CNS

SMILES | GI50 (786-0 renal) | TGI (786-0 renal) | GI50 (A549 NSCLC) | TGI (A549 NSCLC) | GI50 (CCRF-CEM leukemia) | TGI (CCRF-CEM leukemia) | GI50 (MDA-MB-231 breast) | TGI (MDA-MB-231 breast) | GI50 (NCI-H226 lung) | TGI (NCI-H226 lung) | GI50 (OVCAR-4 ovarian) | TGI (OVCAR-4 ovarian) | GI50 (RPMI-8226 leukemia) | TGI (RPMI-8226 leukemia) | GI50 (SF-295 CNS) | TGI (SF-295 CNS) | GI50 (SK-MEL-28 melanoma) | TGI (SK-MEL-28 melanoma) | GI50 (SNB-75 CNS) | TGI (SNB-75 CNS)
COc1ccc(-c2nc(Nc3ccc(F)cc3)nc(Nc3ccc4c(c3)nc(C)n4Cc3ccccc3)n2)cc1 | 2.68 µM | 11.2 µM | 3.59 µM | > 100 µM | 2.88 µM | > 100 µM | 3.64 µM | 18.9 µM | 5.34 µM | > 100 µM | 1.59 µM | > 100 µM | 2.48 µM | 88.1 µM | 3.73 µM | > 100 µM | 4.14 µM | > 100 µM | 2.83 µM | > 100 µM
N#C/C(=C\c1ccc([N+](=O)[O-])cc1)n1nnc2cc(F)c(F)cc21 | 1.86 µM | 3.37 µM | 2.62 µM | 9.04 µM | 1.94 µM | 21.9 µM | 1.97 µM | 4.84 µM | 1.97 µM | 5.73 µM | 1.46 µM | 2.86 µM | 2.42 µM | 6.67 µM | 2.08 µM | 5.29 µM | 2.26 µM | 4.97 µM | 1.52 µM | 3.02 µM
CC(C)[C@]12O[C@H]1[C@@H]1O[C@]13[C@]1(O[C@H]1C[C@H]1C4=C(CC[C@@]13C)C(=O)OC4)[C@@H]2OC(=O)OC(C)(C)C | 0.0308 µM | > 100 µM | 0.0206 µM | > 100 µM | 0.0377 µM | > 100 µM | 0.0543 µM | > 100 µM | < 0.0143 µM | 0.173 µM | 0.0273 µM | > 100 µM | 0.0195 µM | > 42.5 µM | 0.0336 µM | > 100 µM | 0.0176 µM |  | 0.0193 µM | 0.062 µM
COc1ccc(/C=C/C(=O)c2ccc(B(O)O)cc2)cc1O | 18.7 µM | 53.7 µM | 14.5 µM | > 76.7 µM | 7.23 µM | 44.4 µM | 20.2 µM | > 85 µM | 28.2 µM | 97.1 µM | 16.7 µM | 40.3 µM | 3.27 µM | 23 µM | 15.1 µM | 56.5 µM | 22.3 µM | > 89.5 µM | 9.9 µM | 31.2 µM
O=C1/C(=C\c2ccc(Cl)cc2)CN(C(=O)c2ccccc2)C/C1=C\c1ccc(Cl)cc1 | 2.19 µM | 4.6 µM | 3.15 µM | > 45.6 µM | 2.5 µM | > 70.2 µM | 2.47 µM | 6.9 µM |  | > 20.1 µM | 2.54 µM | 19.4 µM | 0.274 µM | 1.36 µM | 3.38 µM | 57.7 µM | 2.94 µM | 9.68 µM | 3.77 µM | > 71.8 µM
ClCCN(CCCl)c1ccc(OCc2ccccc2)cc1 | 2.97 µM | 22.1 µM | 2.53 µM | 29.8 µM | 2.36 µM | 27.6 µM | 16.6 µM | 48.6 µM | 10.3 µM | 28 µM | 12 µM | 55.4 µM | 3.79 µM | 36.5 µM | 1.79 µM | > 100 µM | 13.8 µM | 40.9 µM | 1.81 µM | 12 µM
CCOC(=O)Nc1nc(-c2ccccc2)c(C)s1 |  | > 100 µM |  | > 100 µM |  | > 100 µM |  | > 100 µM |  | > 100 µM |  | > 100 µM |  | > 100 µM |  | > 100 µM |  | > 100 µM |  | > 100 µM
NS(=O)(=O)c1ccc(N=Nc2c(O)[nH]c3cccc(CCc4ccncc4)c23)cc1 | > 25 µM | > 25 µM | > 25 µM | > 25 µM | > 25 µM | > 25 µM | > 25 µM | > 25 µM | > 25 µM | > 25 µM | > 25 µM | > 25 µM | > 25 µM | > 25 µM | > 25 µM | > 25 µM | > 25 µM | > 25 µM | > 25 µM | > 25 µM
Nc1nc(N)c2cc(Sc3ccc(Cl)cc3)ccc2n1 | 0.582 µM | 2.04 µM | 0.254 µM | 12.9 µM | 0.815 µM | 17.4 µM | 1.72 µM | 4.21 µM | 9.71 µM | 23.4 µM | 3.91 µM | 18.9 µM | 1.95 µM | 4.99 µM | 0.63 µM | 15.2 µM | 2.68 µM | 8.05 µM | 5.89 µM | 18.7 µM
